From patent US20250177318A1, “CMT-3 FORMULATIONS AND METHODS OF USING THE SAME” (The Research Foundation for the State University of New York, priority 2022, published 2025)

Tests used:
[1] = Solubility of CMT-3 in aqueous solutions (statement); type: physicochemical
IL-1β = conditions: leucocytes isolated from patients within 24 h of the onset of direct ARDS; cited from earlier work

NC(=O)C1=C(O)CC2CC3Cc4cccc(O)c4C(=O)C3=C(O)[C@]2(O)C1=O (some centres unmarked) [CMT-3, 6-demethyl-6-deoxy-4-de(dimethylamino)tetracycline]
Solubility in aqueous solutions [1]: barely dissolved in aqueous solutions
IL-1β production in alveolar leucocytes (IL-1β): significantly suppressed
